From patent US20250243242A1, “LEVODOPA TYROSINE POLYMORPHS” (NeuroDerm, Ltd., priority 2022, published 2025)
≈ marks a conversion by molar mass, not a printed value. Blank lines part the entries; values can stand above or below the compound they belong to. Non-standard residues stand in square brackets, D forms with d. Residues, ends and D or L forms follow the SMILES beside them. Dopa = N[C@@H](Cc1ccc(O)c(O)c1)C(=O)O

Tests used:
Assay type in all cases: physicochemical
[1] = solid form stability upon storage at ambient conditions
[2] = dynamic vapor sorption (DVS); conditions: for hygroscopicity (in words): DVS, 40-80% RH; for hygroscopicity, weight gained: between 40-80% RH
Method: Dynamic vapour sorption (DVS) was performed using a Hiden Analytical Instruments IGAsorp Vapour Sorption Balance. Approximately 30 mg of sample was placed into a wire-mesh vapour sorption balance pan, loaded into the IGAsorp vapour sorption balance and held at 25° C.±0.1° C. The sample was subjected to a step profile in 10% increments from 40-90% RH, followed by desorption from 90-0% RH and a second sorption cycle form 0-40% RH. The equilibrium criterion was set to 99.0% step completion within a minimum of 60 minutes and a maximum of 5 hours for each increment. The weight change during the sorption cycle was monitored, allowing for the hygroscopic nature of the sample to be determined. The data collection interval was in seconds.

[3] = physical stability at 75% RH and 40° C.
[4] = aqueous solubility at various pH
[5] = between about 40 to about 80% RH at 25° C.

form conversion upon storage [1]: converted to Form N
Compound: N[C@@H](Cc1ccc(O)c(O)c1)C(=O)N[C@@H](Cc1ccc(O)cc1)C(=O)O [Form D, ((S)-2-amino-3-(3,4-dihydroxyphenyl)propanoyl)-L-tyrosine] (H-[Dopa]-Tyr-OH)

DVS reversable total mass change ([2]; between about 0 to about 90% RH at 25° C.): about 8 wt. % | form conversion upon storage [1]: converted to Form B
Compound: N[C@@H](Cc1ccc(O)c(O)c1)C(=O)N[C@@H](Cc1ccc(O)cc1)C(=O)O [Form E, ((S)-2-amino-3-(3,4-dihydroxyphenyl)propanoyl)-L-tyrosine] (H-[Dopa]-Tyr-OH)

physical stability [3]: physically stable | hydrate stability, water loss at low RH ([2]; DVS analysis, compared with Form G): more stable hydrate | hygroscopicity (in words) [2]: less hygroscopic | hygroscopicity, weight gained [2]: 0.6 % w/w | DVS reversable total mass change [2, 5]: about 0.6 wt. % | solubility ([4]; aqueous medium, pH 3.27, aqueous buffer, pH of about 3.27): ~2860 µg/mL (≈ 7.94 mM) | solubility ([4]; aqueous medium, pH 3.83, aqueous buffer, pH of about 3.83): ~1640 µg/mL (≈ 4.55 mM) | solubility ([4]; aqueous medium, pH 3.92, aqueous buffer, pH of about 3.92): ~1540 µg/mL (≈ 4.27 mM) | solubility ([4]; aqueous medium, pH 4.68, aqueous buffer, pH of about 4.68): ~1330 µg/mL (≈ 3.69 mM) | solubility ([4]; aqueous medium, pH 5, aqueous buffer, pH of about 5.00): ~1290 µg/mL (≈ 3.58 mM) | solubility ([4]; aqueous medium, pH 6.04, aqueous buffer, pH of about 6.04): ~1370 µg/mL (≈ 3.8 mM) | solubility ([4]; aqueous solution, pH 1.17, simulated gastric fluid, pH of about 1.17): ~184000 µg/mL (≈ 512 mM) | solubility ([4]; aqueous solution, pH 2.6, aqueous buffer, pH of about 2.60): ~9460 µg/mL (≈ 26.3 mM) | solubility ([4]; aqueous solution, pH 3, aqueous buffer, pH of about 3.00): ~4060 µg/mL (≈ 11.3 mM) | solubility ([4]; aqueous solution, pH 6.78, aqueous buffer, pH of about 6.78): ~510 µg/mL (≈ 1.42 mM) | solubility ([4]; aqueous solution, pH 7.56, aqueous buffer, pH of about 7.56): ~18900 µg/mL (≈ 52.3 mM) | solubility ([4]; aqueous solution, pH 8.69, aqueous buffer, pH of about 8.69): ~111000 µg/mL (≈ 309 mM) | solubility ([4]; aqueous solution, pH 9.43, aqueous buffer, pH of about 9.43): ~58700 µg/mL (≈ 163 mM) | solubility ([4]; aqueous solution, pH 10.26, aqueous buffer, pH of about 10.26): ~155000 µg/mL (≈ 431 mM)
Compound: N[C@@H](Cc1ccc(O)c(O)c1)C(=O)N[C@@H](Cc1ccc(O)cc1)C(=O)O [Form N, ((S)-2-amino-3-(3,4-dihydroxyphenyl)propanoyl)-L-tyrosine] (H-[Dopa]-Tyr-OH)

hygroscopicity, weight gained [2]: 2.6 % w/w | DVS reversable total mass change [2, 5]: about 2.6 wt. %
Compound: N[C@@H](Cc1ccc(O)c(O)c1)C(=O)N[C@@H](Cc1ccc(O)cc1)C(=O)O [Form G, ((S)-2-amino-3-(3,4-dihydroxyphenyl)propanoyl)-L-tyrosine] (H-[Dopa]-Tyr-OH)

hygroscopicity (in words) [2]: hygroscopic | solid form by XRPD following DVS cycling ([2]; XRPD after DVS cycling): converted to Pattern N material | DVS reversable total mass change [2, 5]: about 4.19 wt. %
Compound: N[C@@H](Cc1ccc(O)c(O)c1)C(=O)N[C@@H](Cc1ccc(O)cc1)C(=O)O [amorphous form, ((S)-2-amino-3-(3,4-dihydroxyphenyl)propanoyl)-L-tyrosine] (H-[Dopa]-Tyr-OH)

form conversion upon storage [1]: converted to Form G
Compound: N[C@@H](Cc1ccc(O)c(O)c1)C(=O)N[C@@H](Cc1ccc(O)cc1)C(=O)O [Form C, ((S)-2-amino-3-(3,4-dihydroxyphenyl)propanoyl)-L-tyrosine] (H-[Dopa]-Tyr-OH)
